In article PMC8748872, “Crystal structure and functional implication of bacterial STING” (Nature Communications, 2022):

How the values were obtained:
[1] = target: T1, PcSTING (Prevotella corporis, UniProt A0A133PTK7); assay: crystal structure; LC-MS/MS of co-purified ligand; format: binding; settings: co-purified endogenous ligand from E. coli; 2.25 A for the SeMet form
T1 construct: gene HMPREF3226_02659; C-terminal STING domain only; N-terminal His6-MBP or His6-SUMO tag removed by TEV; E. coli BL21(DE3); homodimer
T1 sequence (A0A133PTK7 entry or part of it): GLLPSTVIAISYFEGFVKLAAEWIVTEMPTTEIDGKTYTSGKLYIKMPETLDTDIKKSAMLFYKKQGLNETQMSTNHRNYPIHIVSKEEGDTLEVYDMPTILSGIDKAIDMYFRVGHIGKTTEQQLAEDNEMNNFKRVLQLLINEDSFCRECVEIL

[2] = target: full-length TIR-STING protein from Myroides sp. ZB35 (MyTIR-STING) (Myroides sp. ZB35); assay: SEC; 16/60 Superdex 200 increase column; 20 mM Tris pH 8.0, 200 mM NaCl, 5% glycerol, 1 mM TCEP; no c-di-GMP added

Row | stoichiometry N [2] | Molecule | crystal structure; LC-MS/MS of co-purified ligand [1]
1 |  | Nc1nc2c(ncn2[C@@H]2O[C@@H]3COP(=O)(O)O[C@H]4[C@@H](O)[C@H](n5cnc6c(=O)[nH]c(N)nc65)O[C@@H]4COP(=O)(O)O[C@H]3[C@H]2O)c(=O)[nH]1 [c-di-GMP] | PcSTING/c-di-GMP and MySTING/c-di-GMP complexes have been deposited in the Protein Data Bank
2 | 2 | full-length TIR-STING protein from Myroides sp. ZB35 (MyTIR-STING) (natural protein) | 
